Reference: a melting point compilation (Tetko et al.)

SMILES | melting point [°C]
C[Si](C)(C)C#N | 11
O=[N+]([O-])OCC(CO[N+](=O)[O-])O[N+](=O)[O-] | 14
COC(=O)c1cc([N+](=O)[O-])ccc1Br | 81
OC(c1ccccc1)c1ccc(C(F)(F)F)cc1 (stereo not given) | 60
Cc1[nH]c2ccccc2c1C#N | 212 to 213
CCCCCCCCCCCCCCCCCCOP1OCC2(CO1)COP(OCCCCCCCCCCCCCCCCCC)OC2 (stereo not given) | 41.5
O=C1CCC(=O)N1c1ccccc1 | 156
CC(=O)OC1Cc2ccccc21 (stereo not given) | 31
O=C1c2ccccc2C(=O)C1C(=O)C(c1ccccc1)c1ccc(Cl)cc1 (stereo not given) | 140
NC(=O)/C(=N\Nc1c(Cl)cccc1Cl)c1nc2ccccc2s1 | 175
Nc1c(Cl)cc(F)cc1Br | 56
N#CC1=C(N)Oc2c(Br)cc(Br)cc2C1C(C#N)C#N (stereo not given) | 300
NCc1ccc(-c2ccccc2)nc1 | 38 to 40
CCCCCCCCCCCCCCCCOC(C)=O | -18.5
Cn1nc(CCl)c2ccccc21 | 62 to 63
O=C1C(=Cc2ccccc2)N=C(N2CCOCC2)N1c1ccccc1 | 235
O=P(O)(O)CCCCP(=O)(O)O | 219 to 221
CCC(C)CC(C)(C)C (stereo not given) | -120
O=C(O)c1ccc(CN2CCCCC2)cc1 | 286 to 293
C[C@H](O)C(=O)O | 53
O=C(Nc1cc(O)cc(C(=O)O)c1)OCC1c2ccccc2-c2ccccc21 | 234 to 236
O=C(O)c1ccc(C(=O)O)nc1 | 254
NC(=O)CN1CCCC1=O | 152
Cc1cc(C2(c3ccc(O)c(C)c3)OS(=O)(=O)c3ccccc32)ccc1O | 290
CCS(=O)(=O)c1nc2ccccn2c1S(=O)(=O)NC(=O)Nc1nc(OC)cc(OC)n1 | 202
CCOC(=O)c1c(NC(=O)CN2CCCCC2)sc2c1CCCC2 | 100 to 101

SMILES | melting point [°C]
COc1cc(O)c(C=O)c(OC)c1 | 70
O=C(O)C1CCN(c2nccc(C(F)(F)F)n2)CC1 | 140 to 142
O=C(CBr)c1coc2ccccc12 | 136 to 137
O=C(c1ccccc1)C(c1ccccc1)c1cc(Cl)c([N+](=O)[O-])cc1[N+](=O)[O-] (stereo not given) | 131
Sc1nccs1 | 78.5
CC(C)(C#N)C#N | 31.5
CCOC(=O)c1c(NC(=S)NCc2ccccc2)sc2c1CCCC2 | 125 to 127
O=C(O)C1Cc2ccccc2N1C(=O)OCc1ccccc1 (stereo not given) | 103 to 105
O=C(OCCOCCOC(=O)c1ccccc1)c1ccccc1 | 33.5
COc1cc(C(c2ccc(C)o2)c2ccc(C)o2)c(O)cc1[N+](=O)[O-] | 104
CCOC(=O)c1cccnc1-c1ncccc1C(=O)OCC | 90
O=C1OC=CC(c2ccccc2)Cc2ccccc21 (stereo not given) | 120
O=C(O)CCc1ccc2c(c1)CCC(=O)N2 | 234
O=[N+]([O-])c1cccnc1N1CCOCC1 | 89 to 91
N[C@H]1CC[C@H](N)CC1 | 68 to 71
CC(C)(C)SC(C)(C)C | -9
CCCCCCCCCCCCCBr | 6.2
Cc1cc(C(=O)O)ccc1Br | 216
CC(C#N)CCC#N (stereo not given) | -45
Cc1ccccc1N1C(=O)c2cc(S(N)(=O)=O)c(Cl)cc2NC1C (stereo not given) | 252
O=S(=O)(Cl)c1cc(S(=O)(=O)Cl)c(Cl)s1 | 79 to 84
CCOc1cccc2cc(C(=O)O)c(=O)oc12 | 190 to 192
CCO[P@](=O)(c1ccc(OC)cc1)N1Cc2ccccc2C[C@@H]1C(=O)NO | 167
O=S(=O)(Oc1ccc(Cl)cc1Cl)c1ccccc1 | 45.5
NNc1cc(Cl)c(C(F)(F)F)cc1[N+](=O)[O-] | 140 to 145
Cc1noc(-c2ccccc2)c1N=C=O | 79 to 81

SMILES | melting point [°C]
NC(=O)c1ccc(F)cc1Cl | 152 to 154
NC(=O)C1(C(=O)O)CC1 | 184 to 189
CC1CC2(C)C(CCC3C4CCC(O)C4(C)CCC32)CC1=O (stereo not given) | 151
O=C(O)c1cn2nc(Cl)ccc2n1 | 248 to 249
O=C(Cl)c1cccnc1Sc1ccc(Cl)cc1 | 100 to 103
Cc1cc2occc(=O)c2cc1Cl | 171
C=C(C)c1cc(=O)c(O)ccc1CC=C(C)C | 71.5
S=c1oc2ccccc2n1CN1CCCCC1 | 255
c1ccc(SCSc2ccccc2)cc1 | 37
CN1CCN(c2cccc([N+](=O)[O-])c2)CC1 | 60 to 62
Cc1ccc(C)nc1 | -16
O=Cc1cccc(O)c1O | 104 to 109
Clc1ccc(SCSc2ccc(Cl)cc2)cc1 | 47
NNc1c(Cl)cc(Cl)cc1C(F)(F)F | 40 to 43
C[C@@H]1N[C@H](C(=O)O)CC2c3ccccc3NC21 (stereo not given in full) | 286
COc1ccc(C=Nn2c(S)nnc2CCn2c(C)nc3ccccc32)cc1 | 262
CCCCS(=O)(=O)NC(Cc1ccc(OCCCCC2CCNCC2)cc1)C(=O)O (stereo not given) | 223
O=C(O)c1c(C(=O)O)c(C(=O)O)c(C(=O)O)c(C(=O)O)c1C(=O)O | 287
O=[N+]([O-])c1ccc(S(=O)(=O)N2CCOCC2)cc1 | 173 to 175
O=C(O)CCc1ccco1 | 58
Cc1ccccc1C(=O)Cc1ccccc1C(=O)N(C)c1ccccc1 | 119
COc1ccc(OCc2ccccc2)cc1 | 71 to 73
CC(=O)c1ccc(N2CCNCC2)cc1 | 107 to 110
O=C1NC(=O)c2c(Cl)c(Cl)c(Cl)c(Cl)c21 | 300
Nc1cccc(F)c1C(=O)O | 170 to 172
CCOc1ccccc1C(N)=O | 133

SMILES | melting point [°C]
NC(=O)OCC(Cl)(Cl)Cl | 64
COc1ccc2c(c1)CCC1C2CCC2(C)C(O)C(O)CC12 (stereo not given) | 159
COc1ccc(OC)c(C(=O)CCCCC(=O)O)c1 | 76
Nc1ccccc1SCCS(=O)(=O)c1ccc(Cl)cc1 | 135 to 137
O=C(NCc1ccccc1)OCCO | 40
Cc1n[nH]c(C)c1-c1ccccc1C(=O)O | 256
COc1cccc2c(=O)c(=O)c12 | 119
CC(C)C1C(=O)NC(=O)NC1=O | 214
CC1(O)CC(c2ccccc2)C([N+](=O)[O-])C(c2ccccc2N)O1 (stereo not given) | 148
CCCCCC(O)c1ccc(O)c(O)c1 (stereo not given) | 109
CN(C)c1ccc(-c2c(C#N)c(N)n(N)c(=O)c2C#N)cc1 | 328 to 330
Fc1c(F)c(F)c(I)c(I)c1F | 49 to 50
COc1ccc(C=Cc2cc(O)cc(OC3OC(CO)C(O)C(O)C3O)c2)cc1O (stereo not given) | 236
CCOC(=O)C1=NN(c2ccccc2)C(=O)C1C(Br)C1(Br)C(=O)N(c2ccccc2)N=C1C(=O)OCC (stereo not given) | 201
Oc1ccc2c(c1)C13CCCCC1(O)C(C2)N(CC1CCC1)CC3 (stereo not given) | 216
CCCCCCCCC(=O)Oc1ccc(/N=N/c2ccc(CCCC)cc2)cc1 | 50 to 53
CCOC(=O)C(=O)c1cc(C(=O)C(=O)OCC)c([N+](=O)[O-])cc1[N+](=O)[O-] | 118
CC(C)(C)OC(=O)N[C@H](CO)Cc1ccccc1 | 97
CC(=O)Nc1ccc(S(=O)(=O)Cl)cc1 | 149
CCC(=O)OC1CCC2C3CCC4=CC(=O)CCC4(C)C3CCC12C (stereo not given) | 120
Brc1ccc(Br)nc1 | 94
C=CCc1c(N)c(C(C)=O)cc(C(C)=O)c1O | 99.5 to 102
O=C1c2ccccc2C(=O)c2c1cc(O)c(O)c2O | 313
O=C(O)c1sccc1Cl | 186
CCOC(=O)c1c(NC(=O)CN(CC)CC)sc2c1CCCC2 | 74 to 75
COc1ccc(F)cc1C=O | 41 to 46

SMILES | melting point [°C]
COc1cc(F)c(F)cc1C#N | 99
CSc1nc(N)nc(-c2ccncc2)n1 | 234 to 237
Cc1ccc([N+](=O)[O-])cc1O | 118
Nc1ncnc2[nH]nnc12 | > 300
CC(=O)C=Cc1ccc(Cl)cc1 | 55
O=Cc1ccc(O)c(F)c1 | 123
O=C(Nc1ccccc1Cl)c1ccccc1 | 99
CC(=O)Oc1cccc(C(N)=O)c1 | 140
OCc1ccc2occc2c1 | 35 to 36
CN(C)C(=O)N(C(=O)c1ccccc1)c1ccc(Cl)c(Cl)c1 | 119
CCCCc1nc(CO)c(Cl)[nH]1 | 150 to 152
O=C(O)c1ccc(=O)oc1 | 203 to 205
c1cnc2ncncc2n1 | 140
CCCCCCCCOc1ccc(NC(=O)c2ccc(CC)cc2)cc1 | 143
CN(C)P(=O)(N(C)C)N(C)C | 7.2
O=C(O)c1cc(Cl)ccc1F | 149
CCOC(=O)c1cc2c(N)c(C(=O)OCC)sc2nc1C(F)(F)F | 181 to 183
OCC(F)(F)C(F)F | -15
Cc1cccc(N/N=C(/C#N)c2nc(-c3ccc(Cl)cc3)cs2)c1 | 157
COC(=O)c1ccc(Cl)c(Cl)c1 | 45
CCC1(O)CCCCC1 | 34.5
Cc1onc(-c2c(Cl)cccc2Cl)c1CCl | 61 to 63
Cn1cc(Br)c(C(=O)Cl)n1 | 131 to 133
O=Cc1ccc(I)c(O)c1 | 131 to 132
O=C(Nc1ccccc1[N+](=O)[O-])c1ccccc1 | 96
C=COC=C | -101
